Results taken from PubChem BioAssay (NCI).
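Method: 48-hour compound exposure of cells in 96-well plates, five concentrations, linear interpolation of endpoints. The concentration for 50% growth inhibition is given as GI50. TGI: total growth inhibition.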

Key:
Experiment in all cases: NCI tumour cell line growth inhibition, 48 h; in the data active = GI50 below about 0.43 µM; inactive = the rest
786-0 renal = system: 786-0 renal
A498 renal = system: A498 renal
A549 NSCLC = system: A549 NSCLC
ACHN renal = system: ACHN renal
BT-549 breast = system: BT-549 breast
CAKI-1 renal = system: CAKI-1 renal
CCRF-CEM leukemia = system: CCRF-CEM leukemia
COLO 205 colon = system: COLO 205 colon
DU-145 prostate = system: DU-145 prostate
EKVX NSCLC = system: EKVX NSCLC
HCC-2998 colon = system: HCC-2998 colon
HCT-116 colon = system: HCT-116 colon
HCT-15 colon = system: HCT-15 colon
HL-60(TB) leukemia = system: HL-60(TB) leukemia
HOP-62 NSCLC = system: HOP-62 NSCLC
HOP-92 NSCLC = system: HOP-92 NSCLC
HS 578T breast = system: HS 578T breast
HT29 colon = system: HT29 colon
IGROV1 ovarian = system: IGROV1 ovarian
K-562 leukemia = system: K-562 leukemia
KM12 colon = system: KM12 colon
LOX IMVI melanoma = system: LOX IMVI melanoma
M14 melanoma = system: M14 melanoma
MALME-3M melanoma = system: MALME-3M melanoma
MCF7 breast = system: MCF7 breast
MDA-MB-231 breast = system: MDA-MB-231 breast
MDA-MB-435 = system: MDA-MB-435
MOLT-4 leukemia = system: MOLT-4 leukemia
NCI-H226 lung = system: NCI-H226 lung
NCI-H23 lung = system: NCI-H23 lung
NCI-H460 lung = system: NCI-H460 lung
NCI-H522 lung = system: NCI-H522 lung
NCI/ADR-RES ovarian = system: NCI/ADR-RES ovarian
OVCAR-3 ovarian = system: OVCAR-3 ovarian
OVCAR-4 ovarian = system: OVCAR-4 ovarian
OVCAR-5 ovarian = system: OVCAR-5 ovarian
OVCAR-8 ovarian = system: OVCAR-8 ovarian
PC-3 prostate = system: PC-3 prostate
RPMI-8226 leukemia = system: RPMI-8226 leukemia
RXF 393 renal = system: RXF 393 renal
SF-268 CNS = system: SF-268 CNS
SF-295 CNS = system: SF-295 CNS
SF-539 CNS = system: SF-539 CNS
SK-MEL-2 melanoma = system: SK-MEL-2 melanoma
SK-MEL-28 melanoma = system: SK-MEL-28 melanoma
SK-MEL-5 melanoma = system: SK-MEL-5 melanoma
SK-OV-3 ovarian = system: SK-OV-3 ovarian
SN12C renal = system: SN12C renal
SNB-19 CNS = system: SNB-19 CNS
SNB-75 CNS = system: SNB-75 CNS
SR leukemia = system: SR leukemia
SW-620 colon = system: SW-620 colon
T-47D breast = system: T-47D breast
TK-10 renal = system: TK-10 renal
U251 CNS = system: U251 CNS
UACC-257 melanoma = system: UACC-257 melanoma
UACC-62 melanoma = system: UACC-62 melanoma
UO-31 renal = system: UO-31 renal

CCN(Cc1ccccc1)C1CCN(Cc2cc(Br)ccc2O)CC1
98.8 µM: TGI (HL-60(TB) leukemia)
59.4 µM: TGI (SK-MEL-28 melanoma)
inactive: GI50 (786-0 renal) 35.9 µM | GI50 (A498 renal) 9.29 µM | GI50 (A549 NSCLC) 69.6 µM | GI50 (ACHN renal) 79.7 µM | GI50 (BT-549 breast) 44.4 µM | GI50 (CAKI-1 renal) 57.9 µM | GI50 (CCRF-CEM leukemia) 39.3 µM | GI50 (COLO 205 colon) 17 µM | GI50 (DU-145 prostate) > 100 µM | GI50 (EKVX NSCLC) 31.9 µM | GI50 (HCC-2998 colon) 33.7 µM | GI50 (HCT-116 colon) 23.2 µM | GI50 (HCT-15 colon) 20.1 µM | GI50 (HL-60(TB) leukemia) 31.3 µM | GI50 (HOP-62 NSCLC) > 100 µM | GI50 (HOP-92 NSCLC) 10.4 µM | GI50 (HS 578T breast) 57.2 µM | GI50 (HT29 colon) 20.1 µM | GI50 (IGROV1 ovarian) > 100 µM | GI50 (K-562 leukemia) 26.6 µM | GI50 (KM12 colon) 42.3 µM | GI50 (LOX IMVI melanoma) 23.3 µM | GI50 (M14 melanoma) 20.7 µM | GI50 (MALME-3M melanoma) 24 µM | GI50 (MCF7 breast) 27.8 µM | GI50 (MDA-MB-231 breast) 31.6 µM | GI50 (MDA-MB-435) 30.2 µM | GI50 (MOLT-4 leukemia) 32.6 µM | GI50 (NCI-H226 lung) > 100 µM | GI50 (NCI-H23 lung) 34.9 µM | GI50 (NCI-H460 lung) 58.2 µM | GI50 (NCI-H522 lung) 17 µM | GI50 (NCI/ADR-RES ovarian) 31.9 µM | GI50 (OVCAR-3 ovarian) 80.6 µM | GI50 (OVCAR-4 ovarian) 33.7 µM | GI50 (OVCAR-5 ovarian) > 100 µM | GI50 (OVCAR-8 ovarian) 76.6 µM | GI50 (PC-3 prostate) 38.9 µM | GI50 (RPMI-8226 leukemia) 25.5 µM | GI50 (RXF 393 renal) 17.5 µM | GI50 (SF-268 CNS) 59.7 µM | GI50 (SF-295 CNS) 25.6 µM | GI50 (SF-539 CNS) 36.7 µM | GI50 (SK-MEL-2 melanoma) 85.4 µM | GI50 (SK-MEL-28 melanoma) 22 µM | GI50 (SK-MEL-5 melanoma) 15 µM | GI50 (SK-OV-3 ovarian) 77.4 µM | GI50 (SN12C renal) 42.9 µM | GI50 (SNB-19 CNS) 57.2 µM | GI50 (SNB-75 CNS) 27.5 µM | GI50 (SR leukemia) 27.8 µM | GI50 (SW-620 colon) 27.2 µM | GI50 (T-47D breast) 24 µM | GI50 (TK-10 renal) > 100 µM | GI50 (U251 CNS) 32.5 µM | GI50 (UACC-257 melanoma) 26 µM | GI50 (UACC-62 melanoma) 26.6 µM | GI50 (UO-31 renal) 24 µM
39.6 µM: TGI (COLO 205 colon)
54.5 µM: TGI (M14 melanoma)
40.3 µM: TGI (NCI-H522 lung)
63.6 µM: TGI (LOX IMVI melanoma)
53 µM: TGI (MALME-3M melanoma)
> 100 µM: TGI (786-0 renal) | TGI (A498 renal) | TGI (A549 NSCLC) | TGI (ACHN renal) | TGI (BT-549 breast) | TGI (CAKI-1 renal) | TGI (CCRF-CEM leukemia) | TGI (DU-145 prostate) | TGI (EKVX NSCLC) | TGI (HCC-2998 colon) | TGI (HCT-116 colon) | TGI (HCT-15 colon) | TGI (HOP-62 NSCLC) | TGI (HOP-92 NSCLC) | TGI (HS 578T breast) | TGI (HT29 colon) | TGI (IGROV1 ovarian) | TGI (K-562 leukemia) | TGI (KM12 colon) | TGI (MCF7 breast) | TGI (MDA-MB-231 breast) | TGI (MDA-MB-435) | TGI (MOLT-4 leukemia) | TGI (NCI-H226 lung) | TGI (NCI-H23 lung) | TGI (NCI-H460 lung) | TGI (NCI/ADR-RES ovarian) | TGI (OVCAR-3 ovarian) | TGI (OVCAR-4 ovarian) | TGI (OVCAR-5 ovarian) | TGI (OVCAR-8 ovarian) | TGI (PC-3 prostate) | TGI (RPMI-8226 leukemia) | TGI (SF-268 CNS) | TGI (SF-295 CNS) | TGI (SF-539 CNS) | TGI (SK-MEL-2 melanoma) | TGI (SK-OV-3 ovarian) | TGI (SN12C renal) | TGI (SNB-19 CNS) | TGI (SNB-75 CNS) | TGI (SR leukemia) | TGI (SW-620 colon) | TGI (T-47D breast) | TGI (TK-10 renal) | TGI (U251 CNS) | TGI (UACC-257 melanoma) | TGI (UACC-62 melanoma) | TGI (UO-31 renal)
94.6 µM: TGI (RXF 393 renal)
28.9 µM: TGI (SK-MEL-5 melanoma)
